Measured values taken from patent publication US9867826B2, “Heterocycles as modulators of kinase activity” (Merck Patent GmbH, priority 2013, dated 2018).

What was measured:
P70S6K (T412E mutant) = P70S6K (T412E mutant) (Homo sapiens (Human), UniProt P23443, T412E); test: P70S6K enzyme assay; type: biochemical; details: 24 μM ATP
Method: P70S6K inhibitor compounds were diluted and plated in 96 well plates. A reaction mixture including the following components was then added to the compound plate to initiate the enzyme reaction; P70S6K (3 nM, T412E mutant, Millipore) was mixed with 24 μM ATP in an assay buffer containing 100 mM Hepes (pH 7.5), 5 mM MgCl2, 1 mM DTT, 0.015% Brij and 1 μM of the substrate peptide FITC-AHA-AKRRRLSSLRA-OH (derived from the S6 ribosomal protein sequence, FITC=fluorescein isothiocyanate, AHA=6-aminohexanoic acid). The reaction was incubated for 90 min at 25° C., before the addition of 10 mM EDTA to stop the reaction. The proportion of substrate and product (phosphorylated) peptide was analysed on a Caliper Life Sciences Lab Chip 3000, using a pressure of −1.4 psi, and upstream and downstream voltages of −3000 and −700 respectively. Product peaks were resolved before substrate peaks on the resulting chromatograms.

His-AKT (Full Length) = His-AKT (Full Length) (Homo sapiens (Human), UniProt P31749); test: AKT enzyme assay; type: biochemical; details: 160 uM ATP
Sequence of His-AKT (Full Length) (P31749 whole entry): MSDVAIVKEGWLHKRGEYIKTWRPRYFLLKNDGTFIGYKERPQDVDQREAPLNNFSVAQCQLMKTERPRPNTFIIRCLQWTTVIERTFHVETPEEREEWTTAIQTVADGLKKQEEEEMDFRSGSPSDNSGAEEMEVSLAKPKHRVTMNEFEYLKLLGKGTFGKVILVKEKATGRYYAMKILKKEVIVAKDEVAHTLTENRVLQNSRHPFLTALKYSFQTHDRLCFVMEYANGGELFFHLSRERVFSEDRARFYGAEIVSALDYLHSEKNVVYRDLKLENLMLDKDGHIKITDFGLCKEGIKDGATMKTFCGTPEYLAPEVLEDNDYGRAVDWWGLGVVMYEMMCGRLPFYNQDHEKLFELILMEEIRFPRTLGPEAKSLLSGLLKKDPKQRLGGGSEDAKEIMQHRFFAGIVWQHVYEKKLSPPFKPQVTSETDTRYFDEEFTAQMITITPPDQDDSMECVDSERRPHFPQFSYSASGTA
Method: A TTP Mosquito liquid handling instrument was used to place 125 nl of the appropriate concentration of inhibitor in 100% DMSO (for a dose response curve calculation) into each well of a 384-well plate. To this reaction components were added to a final volume of 12.5 μl: • 0.1 ng/μl His-AKT (Full Length), (Invitrogen, Part # P2999, Lot #641228C). • 160 uM ATP (Fluka, 02055) • 1 mM DTT (Sigma, D0632) • 1 mM MgCl2 (Sigma, M1028) • 1 μM substrate peptide (sequence FITC-AHA-GRPRTSSFAEG-NH2), synthesized by Tufts Peptide Synthesis service. • 100 mM HEPES pH 7.5 (Calbiochem, 391338) • 0.015% Brij-35 (Sigma, B4184)
The reaction was incubated for 90 min at 25 C., and then stopped by the addition of 70 μl of Stop buffer (100 mM HEPES pH 7.5, 0.015% Brij-35, 10 mM EDTA (Sigma, E7889)).
The plate was read on a Caliper LC 3000 in an Off-Chip mobility shift assay format, using the following parameters for a 12-sipper chip: screening pressure −2.3 psi, upstream voltage −500, and downstream voltage −3000. These conditions caused unphosphorylated substrate and phosphorylated product peptide to resolve as separate peaks allowing direct measurement of percentage of conversion of substrate to product.
The percent conversion was plotted against concentration of inhibitor to produce a sigmoidal dose response curve, from which an IC50 was calculated.

Sequence of P70S6K (T412E mutant) (P23443 whole entry T412E): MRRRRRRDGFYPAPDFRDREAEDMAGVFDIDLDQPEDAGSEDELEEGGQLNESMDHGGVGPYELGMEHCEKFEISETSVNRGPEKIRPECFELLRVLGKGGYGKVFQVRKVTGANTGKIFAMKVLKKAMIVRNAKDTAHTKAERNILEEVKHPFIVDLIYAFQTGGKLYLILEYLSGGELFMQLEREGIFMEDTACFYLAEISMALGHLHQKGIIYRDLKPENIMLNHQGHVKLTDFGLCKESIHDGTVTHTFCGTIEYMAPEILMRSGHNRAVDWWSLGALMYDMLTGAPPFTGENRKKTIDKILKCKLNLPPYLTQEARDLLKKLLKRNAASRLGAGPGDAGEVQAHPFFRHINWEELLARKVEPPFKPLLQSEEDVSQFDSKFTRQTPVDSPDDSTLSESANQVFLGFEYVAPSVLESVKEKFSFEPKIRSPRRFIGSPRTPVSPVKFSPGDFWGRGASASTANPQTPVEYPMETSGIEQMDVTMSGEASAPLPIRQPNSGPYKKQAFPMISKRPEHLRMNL

SMILES | IC50 (P70S6K (T412E mutant)) | IC50 (His-AKT (Full Length))
Cc1cc(-c2cn(CCN3CCC3)c(C3(O)CCN(c4ncnc(N)c4C(C)C)CC3)n2)ccc1F [Compound 45, 1-(6-Amino-5-isopropyl-pyrimidin-4-yl)-4-[1-(2-azetidin-1-yl-ethyl)-4-(4-fluoro-3-methyl-phenyl)-1H-imidazol-2-yl]-piperidin-4-ol] | 1 to 10 nM | 1 to 10 nM
CCc1c(N)ncnc1N1CCC(O)(c2nc(-c3ccc(F)c(C)c3)cn2CCN2CCC2)CC1 [Compound 46, 1-(6-Amino-5-ethyl-pyrimidin-4-yl)-4-[1-(2-azetidin-1-yl-ethyl)-4-(4-fluoro-3-methyl-phenyl)-1H-imidazol-2-yl]-piperidin-4-ol] | 1 to 10 nM | 1 to 10 nM
Cc1cc(-c2cn(CCN3CCC3)c(C3(O)CCN(c4ncnc(N)c4Cl)CC3)n2)ccc1F [Compound 47, 1-(6-Amino-5-chloro-pyrimidin-4-yl)-4-[1-(2-azetidin-1-yl-ethyl)-4-(4-fluoro-3-methyl-phenyl)-1H-imidazol-2-yl]-piperidin-4-ol] | 1 to 10 nM | 1 to 10 nM
Cc1cc(-c2cn(CCN3CCC3)c(C3CCN(c4ncnc(N)c4C#N)CC3(F)F)n2)ccc1F (centres unmarked) [Compound 48, 4-Amino-6-{4-{1-(2-azetidin-1-yl-ethyl)-4-(4-fluoro-3-methyl-phenyl)-1H-imidazol-2-yl}-3,3-difluoro-piperidin-1-yl}-pyrimidine-5-carbonitrile] | 1 to 10 nM | 1 to 10 nM
Cc1cc(-c2cn(CCN3CCC3)c(C3CCN(c4ncnc(N)c4C(N)=O)CC3(F)F)n2)ccc1F (centres unmarked) [Compound 49, 4-Amino-6-{4-[1-(2-azetidin-1-yl-ethyl)-4-(4-fluoro-3-methyl-phenyl)-1H-imidazol-2-yl]-3,3-difluoro-piperidin-1-yl}-pyrimidine-5-carboxylic acid amide] | > 10 nM | > 10 nM
Cc1cc(-c2cn(CCN3CCC3)c(C3CCN(c4ncnc(N)c4C(C)C)CC3(F)F)n2)ccc1F (centres unmarked) [Compound 50, 6-{4-[1-(2-Azetidin-1-yl-ethyl)-4-(4-fluoro-3-methyl-phenyl)-1H-imidazol-2-yl]-3,3-difluoro-piperidin-1-yl}-5-isopropyl-pyrimidin-4-ylamine] | 1 to 10 nM | 1 to 10 nM

Next, values leading:

IC50 (P70S6K (T412E mutant)) | IC50 (His-AKT (Full Length)) | SMILES
1 to 10 nM | > 10 nM | CN(C)CCn1cc(-c2ccc(F)c(C(F)(F)F)c2)nc1[C@H]1CCN(c2ncnc(N)c2Cl)C[C@H]1F (single isomer, unassigned) [Compound 30]
1 to 10 nM | > 10 nM | CC(C)c1c(N)ncnc1N1CC[C@H](c2nc(-c3ccc(F)c(C(F)(F)F)c3)cn2CCN(C)C)[C@H](F)C1 (single isomer, unassigned) [Compound 31]
1 to 10 nM | 1 to 10 nM | CC(C)c1c(N)ncnc1N1CC[C@@H](c2nc(-c3ccc(F)c(C(F)(F)F)c3)cn2CCN(C)C)[C@@H](F)C1 (single isomer, unassigned) [Compound 32]
1 to 10 nM | > 10 nM | Cc1cc(-c2cn(CCN3CCC3)c([C@H]3CCN(c4ncnc(N)c4C(C)C)C[C@H]3F)n2)ccc1F (single isomer, unassigned) [Compound 34]
1 to 10 nM | 1 to 10 nM | Cc1cc(-c2cn(CCN3CCC3)c([C@@H]3CCN(c4ncnc(N)c4C(C)C)C[C@@H]3F)n2)ccc1F (single isomer, unassigned) [Compound 35]
1 to 10 nM | 1 to 10 nM | N#Cc1c(N)ncnc1N1CC[C@@H](c2nc(-c3ccc(F)c(C(F)(F)F)c3)cn2CCN2CCC2)[C@@H](F)C1 (single isomer, unassigned) [Compound 40]
1 to 10 nM | 1 to 10 nM | Cc1cc(-c2cn(CCN3CCC3)c(C3(O)CCN(c4ncnc(N)c4C#N)CC3)n2)ccc1F [Compound 44, 4-Amino-6-{4-[1-(2-azetidin-1-yl-ethyl)-4-(4-fluoro-3-methyl-phenyl)-1H-imidazol-2-yl]-4-hydroxy-piperidin-1-yl}-pyrimidine-5-carbonitrile]
